Experimental data as given in PubChem BioAssay (NCI).
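Method: 48-hour compound exposure of cells in 96-well plates, five concentrations, linear interpolation of endpoints. At the GI50, growth is halved. TGI: concentration producing complete growth inhibition.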

How the values were obtained:
Test in all cases: growth of human tumour cells (NCI), 48 h
[1] = tested on: OVCAR-3 ovarian
[2] = tested on: OVCAR-8 ovarian
[3] = tested on: MOLT-4 leukemia
[4] = tested on: NCI/ADR-RES ovarian
[5] = tested on: T-47D breast
[6] = tested on: U251 CNS
[7] = tested on: SN12C renal
[8] = tested on: UACC-62 melanoma
[9] = tested on: A549 NSCLC
[10] = tested on: LOX IMVI melanoma
[11] = tested on: HCC-2998 colon
[12] = tested on: PC-3 prostate
[13] = tested on: RPMI-8226 leukemia
[14] = tested on: HT29 colon
[15] = tested on: MALME-3M melanoma
[16] = tested on: UO-31 renal
[17] = tested on: UACC-257 melanoma
[18] = tested on: MDA-MB-231 breast
[19] = tested on: OVCAR-4 ovarian
[20] = tested on: MCF7 breast
[21] = tested on: SK-OV-3 ovarian
[22] = tested on: NCI-H23 lung
[23] = tested on: SK-MEL-5 melanoma
[24] = tested on: HS 578T breast
[25] = tested on: ACHN renal
[26] = tested on: SNB-75 CNS
[27] = tested on: IGROV1 ovarian
[28] = tested on: BT-549 breast
[29] = tested on: NCI-H522 lung
[30] = tested on: NCI-H226 lung
[31] = tested on: HCT-116 colon
[32] = tested on: OVCAR-5 ovarian
[33] = tested on: DU-145 prostate
[34] = tested on: SF-295 CNS
[35] = tested on: NCI-H460 lung
[36] = tested on: MDA-MB-435
[37] = tested on: SK-MEL-28 melanoma
[38] = tested on: SNB-19 CNS
[39] = tested on: CAKI-1 renal
[40] = tested on: HL-60(TB) leukemia
[41] = tested on: SF-268 CNS
[42] = tested on: A498 renal
[43] = tested on: SF-539 CNS
[44] = tested on: KM12 colon
[45] = tested on: SR leukemia
[46] = tested on: EKVX NSCLC
[47] = tested on: COLO 205 colon
[48] = tested on: CCRF-CEM leukemia
[49] = tested on: RXF 393 renal
[50] = tested on: TK-10 renal
[51] = tested on: M14 melanoma
[52] = tested on: SW-620 colon
[53] = tested on: HOP-62 NSCLC
[54] = tested on: SK-MEL-2 melanoma
[55] = tested on: HCT-15 colon
[56] = tested on: HOP-92 NSCLC
[57] = tested on: K-562 leukemia

For `Oc1ccc2ccccc2c1N=Nc1ccccn1`, the GI50 [1] was 266 nM, the GI50 [2] was 447 nM and the TGI [2] was greater than 27400 nM. For the same compound, the GI50 [3] was 296 nM, the TGI [3] was 12500 nM and the GI50 [4] was 575 nM. For the same compound, the TGI [4] was 4640 nM, the GI50 [5] was 681 nM and the TGI [5] was greater than 28400 nM. The GI50 [6] was 563 nM, the TGI [6] was greater than 100000 nM and the GI50 [7] was 1460 nM. The TGI [7] was greater than 100000 nM, the GI50 [8] was 1350 nM and the TGI [8] was 8220 nM. For the same compound, the GI50 [9] was 2950 nM, the TGI [9] was greater than 59300 nM and the GI50 [10] was 356 nM. It also gave a TGI [10] of 12400 nM, a GI50 [11] of 2350 nM and a TGI [11] greater than 100000 nM. For the same compound, the GI50 [12] was 1760 nM, the TGI [12] was greater than 100000 nM and the GI50 [13] was 1980 nM. It also gave a TGI [13] greater than 100000 nM, a GI50 [14] of 523 nM and a TGI [14] greater than 100000 nM. It also gave a GI50 [15] of 2070 nM, a TGI [15] of 10600 nM and a GI50 [16] of 306 nM. The TGI [16] was greater than 25800 nM, the GI50 [17] was 2010 nM and the TGI [17] was 8020 nM. The GI50 [18] was 468 nM, the TGI [18] was greater than 100000 nM and the GI50 [19] was 408 nM. For the same compound, the TGI [19] was 3870 nM, the GI50 [20] was 527 nM and the TGI [20] was greater than 100000 nM. It also gave a GI50 [21] of 1140 nM, a TGI [21] greater than 100000 nM and a GI50 [22] of 2820 nM. It also gave a TGI [22] greater than 100000 nM, a GI50 [23] of 2750 nM and a TGI [23] of 15600 nM. It also gave a GI50 [24] of 7520 nM, a TGI [24] greater than 52800 nM and a GI50 [25] of 423 nM. The TGI [25] was greater than 100000 nM, the GI50 [26] was 7490 nM and the TGI [26] was greater than 86700 nM. For the same compound, the GI50 [27] was 349 nM, the TGI [27] was 8140 nM and the GI50 [28] was 3440 nM. It also gave a TGI [28] greater than 100000 nM, a GI50 [29] of 1970 nM and a TGI [29] of 43000 nM. The GI50 [30] was 1940 nM, the TGI [30] was greater than 87900 nM and the GI50 [31] was 277 nM. It also gave a TGI [31] of 2770 nM, a GI50 [32] of 4000 nM and a TGI [32] greater than 100000 nM. It also gave a GI50 [33] of 1830 nM, a TGI [33] greater than 100000 nM and a GI50 [34] of 800 nM. It also gave a TGI [34] of 13500 nM, a GI50 [35] of 532 nM and a TGI [35] of 5490 nM. For the same compound, the GI50 [36] was 2110 nM, the TGI [36] was greater than 100000 nM and the GI50 [37] was 2800 nM. For the same compound, the TGI [37] was greater than 100000 nM, the GI50 [38] was 2530 nM and the TGI [38] was greater than 100000 nM. For the same compound, the GI50 [39] was 138 nM, the TGI [39] was 906 nM and the GI50 [40] was 469 nM. For the same compound, the TGI [40] was 3230 nM, the GI50 [41] was 554 nM and the TGI [41] was greater than 100000 nM. For the same compound, the GI50 [42] was 2390 nM, the TGI [42] was 20000 nM and the GI50 [43] was 1600 nM. The TGI [43] was greater than 28400 nM, the GI50 [44] was 919 nM and the TGI [44] was greater than 100000 nM. It also gave a GI50 [45] of 356 nM, a TGI [45] of 10400 nM and a GI50 [46] of 449 nM. The TGI [46] was 43400 nM, the GI50 [47] was 431 nM and the TGI [47] was 21400 nM. For the same compound, the GI50 [48] was 312 nM, the TGI [48] was 22800 nM and the GI50 [49] was 3440 nM. It also gave a TGI [49] greater than 100000 nM, a GI50 [50] of 1530 nM and a TGI [50] greater than 86200 nM. For the same compound, the GI50 [51] was 1410 nM, the TGI [51] was 7100 nM and the GI50 [52] was 652 nM. For the same compound, the TGI [52] was greater than 100000 nM, the GI50 [53] was 1410 nM and the TGI [53] was greater than 100000 nM. For the same compound, the GI50 [54] was 3080 nM, the TGI [54] was greater than 82500 nM and the GI50 [55] was 497 nM. It also gave a TGI [55] greater than 100000 nM, a GI50 [56] of 3020 nM and a TGI [56] greater than 100000 nM. It also gave a GI50 [57] of 600 nM and a TGI [57] greater than 100000 nM.
